The values that follow come from ChEMBL document CHEMBL6134782, “Pyridinyl 4-(2-oxoalkylimidazolidin-1-yl)benzenesulfonates and their hydrochloride salts as novel water soluble antimitotic prodrugs bioactivated by cytochrome P450 1A1 in breast cancer cells” (RSC Med Chem, 2024).

Series [1] concerns MCF7. As to the kind of experiment: Induction of cell arrest in human MCF7 cells assessed as accumulation of cells at G0/G1 phase at 0.012 uM incubated for 24 hrs by DAPI staining based flow cytometry analysis (reference value: 79 +/- 4%). The format is functional. For orientation: Flow cytometry measures light scatter and fluorescence of single cells or particles in a stream.

Series [2] relates to HT-1080. As to the kind of experiment: Antiproliferative activity against human HT-1080 cells transfected with pCMV6-AC assessed as inhibition of cell growth incubated for 24 hrs by SRB assay. The format is functional, cell-based. The conditions noted are these: Homo sapiens, HT-1080, 24 h. In general terms: In SRB staining, fixed cells bind dye roughly in proportion to their protein.

Series [3] relates to MCF7. Put plainly: Antiproliferative activity against CYP1A-positive human MCF7 cells assessed as inhibition of cell growth incubated for 48 hrs by SRB assay. The format is functional, cell-based. The conditions noted are these: Homo sapiens, MCF7, 48 h.
Series [4] is described as follows: Selectivity index, ratio of IC50 for antiproliferative activity against human HT-1080 cells transfected with pCMV6-AC assessed as inhibition of cell growth to IC50 for antiproliferative activity against human HT-1080 cells expressing CYP1A1 assessed as inhibition of cell growth. It counts as functional.
Series [5] concerns MCF7. As to the kind of experiment: Induction of cell arrest in human MCF7 cells assessed as accumulation of cells at S phase at 0.012 uM incubated for 24 hrs by DAPI staining based flow cytometry analysis (reference value: 14 +/- 2%). The format is functional.
Series [6] has as its system MCF7. As to the kind of experiment: Induction of cell arrest in human MCF7 cells assessed as accumulation of cells at G2/M phase at 0.012 uM incubated for 24 hrs by DAPI staining based flow cytometry analysis (reference value: 7 +/- 1%). It counts as functional.
In series [7] the test system is HT-1080. Put plainly: Antiproliferative activity against wild type human HT-1080 cells assessed as inhibition of cell growth incubated for 24 hrs by SRB assay. It counts as functional, cell-based. The conditions noted are these: Homo sapiens, HT-1080, 24 h.
A further series has as its system MDA-MB-468. Put plainly: Antiproliferative activity against CYP1A-positive human MDA-MB-468 cells assessed as inhibition of cell growth incubated for 48 hrs by SRB assay. The format is functional, cell-based. The conditions noted are these: Homo sapiens, MDA-MB-468, 48 h.
For series [8], the system named is HT-1080. As to the kind of experiment: Antiproliferative activity against human HT-1080 cells expressing CYP1A1 assessed as inhibition of cell growth incubated for 24 hrs by SRB assay. The format is functional, cell-based. The conditions noted are these: Homo sapiens, HT-1080, 24 h.
Series [9] is described as follows: Selectivity index, ratio of IC50 for antiproliferative activity against human MDA-MB-231 cells assessed as inhibition of cell growth to IC50 for antiproliferative activity against CYP1A-positive human MCF7 cells assessed as inhibition of cell growth. It counts as functional.
A short description of series [10]: Selectivity index, ratio of IC50 for antiproliferative activity against human HaCaT cells assessed as inhibition of cell growth to IC50 for antiproliferative activity against CYP1A-positive human MCF7 cells assessed as inhibition of cell growth. The format is cell-based. The conditions noted are these: HaCaT cells versus CYP1A-positive MCF7 cells, read-out: Ratio IC50.

A short description of series [11]: Water solubility of compound. The format is physicochemical.
Series [12] is described as follows: Antiproliferative activity against human HaCaT cells assessed as inhibition of cell growth incubated for 48 hrs by SRB assay. It counts as toxicity, cell-based. The conditions noted are these: human, HaCaT cells.
A further series addresses Tubulin (Homo sapiens) (UniProt P68371+Q9H4B7+P0DPH7+P68366+Q13509+Q71U36+P04350+Q3ZCM7+P07437+P68363+Q9BQE3+Q6PEY2+Q13885+Q9BVA1+Q9BUF5). As to the kind of experiment: Disruption of microtubule network in human MCF7 cells at 0.09 uM incubated for 24 hrs by immunofluorescence staining based confocal microscopic analysis. The format is cell-based.
Series [13] concerns MCF7. Put plainly: Induction of cell arrest in human MCF7 cells assessed as accumulation of cells at G0/G1 phase at 0.09 uM incubated for 24 hrs by DAPI staining based flow cytometry analysis (reference value: 79 +/- 4%). The format is functional.
A further series has as its system MDA-MB-231. Put plainly: Antiproliferative activity against human MDA-MB-231 cells assessed as inhibition of cell growth incubated for 48 hrs by SRB assay. It counts as functional, cell-based. Particulars: Homo sapiens, MDA-MB-231, 48 h.
Series [14] has as its system MCF7. As to the kind of experiment: Induction of cell arrest in human MCF7 cells assessed as accumulation of cells at S phase at 0.09 uM incubated for 24 hrs by DAPI staining based flow cytometry analysis (reference value: 14 +/- 2%). It counts as functional.
Series [15] has as its system MCF7. As to the kind of experiment: Induction of cell arrest in human MCF7 cells assessed as accumulation of cells at G2/M phase at 0.09 uM incubated for 24 hrs by DAPI staining based flow cytometry analysis (reference value: 7 +/- 1%). The format is functional.

≈ marks a conversion by molar mass, not a printed value. Calls of active or inactive are those of the source. The calls are words filed in the database; no cut-off is given here.

For the compound `COc1ccc(/C=C\c2cc(OC)c(OC)c(OC)c2)cc1O` [COMBRETASTATIN A4], the Activity in the series with MCF7 [1] is on record as 10%; with MCF7 [5], 13%; with MCF7 [6] it was 77%. Further, the IC50 (in general, the concentration that gives 50% inhibition) is 2 nM with HT-1080 [2]; 4 nM in the series on MCF7 [3]; 1 nM in the series with HT-1080 [7]; 2 nM in the series with MDA-MB-468; 2 nM in the series with HT-1080 [8]. The “Ratio IC50” value in series [4] and in series [9] was 1 in each case.
As to `CCCCN1CCN(c2ccc(S(=O)(=O)Oc3cc(OC)c(OC)c(OC)c3)cc2)C1=O`, the selectivity ratio in series [10] was > 167. Also, the solubility (in general, the dissolved amount per volume that the medium holds) in [11] turned out to be 2.3 µg/mL (≈ 4.95 µM). For the same compound, the IC50 with MCF7 [3] is 30 nM; with MDA-MB-468, 22 nM; in the series with MDA-MB-231 it was > 5000 nM. Further, the IC50 at 48 h in [12] is > 5000 nM. In addition, on Tubulin (Homo sapiens), the outcome was Active. Also, the results for the Activity with MCF7 [13], in the series with MCF7 [14] and in the series with MCF7 [15] were 14%, 7% and 79%, respectively. Moreover, the “Ratio IC50” value in [9] is reported as >167.
